Assay results reported in patent US20260200928A1, “THERAPEUTIC COMPOUNDS” (Sanofi, priority 2022, published 2026).
pIC50: −log10 of the molar value.

Target: T1, human IL-17A (Homo sapiens, UniProt Q16552)
T1 construct: purchased R&D Systems 7955-IL/CF
T1 sequence (Q16552 24-155): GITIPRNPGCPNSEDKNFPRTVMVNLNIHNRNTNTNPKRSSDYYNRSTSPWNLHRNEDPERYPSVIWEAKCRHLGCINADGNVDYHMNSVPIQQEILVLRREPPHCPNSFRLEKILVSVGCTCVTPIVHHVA
Assay: IL-17A AlphaLISA competition assay (block of IL-17A binding to its receptor IL-17RA)
Settings: mean IC50 (n≥2), block of IL-17A binding to IL-17RA
How it was run: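 Human recombinant IL-17A (7.5 nM stock) pre-incubated 30 min at RT with compound, then IL-17RA/Fc (5 nM stock) added for 90 min; AlphaLISA read with anti-Fc acceptor beads, biotinylated anti-IL-17A antibody (5 nM) and streptavidin donor beads (3 h, dark). IC50 from 4-parameter logistic fit, normalised to DMSO and 4 μM reference inhibitor; n≥2.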

| pIC50 | SMILES |
| --- | --- |
| 7.12 | CC(C)(OC[C@H](NC(=O)c1nonc1C1CC1)C(=O)Nc1cc(CN2C[C@@H](C(F)(F)F)NC2=O)ccn1)C(F)(F)F [Example 274, 4-cyclopropyl-N-((S)-1-oxo-1-((4-(((S)-2-oxo-4-(trifluoromethyl)imidazolidin-1-yl)methyl)pyridin-2-yl)amino)-3-((1,1,1-trifluoro-2-methylpropan-2-yl)oxy)propan-2-yl)-1,2,5-oxadiazole-3-carboxamide] |
| 7.48 | COC[C@H](c1ccnc(NC(=O)[C@@H](NC(=O)c2nonc2C)C2CCC(F)(F)CC2)c1)N1C[C@@H](C(F)(F)F)NC1=O [Example 199, N-((S)-1-(4,4-difluorocyclohexyl)-2-((4-((S)-2-methoxy-1-((S)-2-oxo-4-(trifluoromethyl)imidazolidin-1-yl)ethyl)pyridin-2-yl)amino)-2-oxoethyl)-4-methyl-1,2,5-oxadiazole-3-carboxamide] |
| 7.08 | COC[C@H](c1ccnc(NC(=O)C(NC(=O)c2ccnn2C)C2CCC(F)CC2)c1)N1C[C@@H](C(F)(F)F)NC1=O (single isomer, unassigned) [Example 288] |
| 5.35 | COCC(NC(=O)CCC(F)(F)F)c1ccnc(NC(=O)[C@@H](NC(=O)c2ccnn2C2CC2)C2CCC(F)(F)CC2)c1 (single isomer, unassigned) [Example 146] |
| 7.89 | CCc1nocc1C(=O)N[C@H](C(=O)Nc1cc(C(COC)N2C[C@@H](C(F)(F)F)NC2=O)ccn1)[C@H]1CC[C@H](C)CC1 (single isomer, unassigned) [Example 125] |
| 6.93 | COC[C@H](c1ccnc(NC(=O)C(NC(=O)c2nocc2OCC(F)F)C2CCC(F)CC2)c1)N1C[C@@H](C(F)(F)F)NC1=O (single isomer, unassigned) [Example 281] |
| 5.41 | Cc1cnn(C)c1Cc1ccnc(NC(=O)C(NC(=O)c2ccnn2C)C2CCC(F)(F)CC2)c1 (centres unmarked) [Example 53] |
| 7.13 | CCn1nccc1C(=O)N[C@H](C(=O)Nc1cc([C@@H](COC)N2C[C@@H](C(F)(F)F)NC2=O)ccn1)[C@H]1CCCC(F)(F)C1 (single isomer, unassigned) [Example 308] |
| 7.51 | CCc1conc1C(=O)NC(C(=O)Nc1cc([C@@H](CC)N2C[C@@H](C(F)(F)F)NC2=O)ccn1)C1CCC(F)(F)CC1 (stereo in doubt) [Example 208, N—((S)-1-(4,4-difluorocyclohexyl)-2-oxo-2-((4-((R)-1-((S)-2-oxo-4-(trifluoromethyl)imidazolidin-1-yl)propyl)pyridin-2-yl)amino)ethyl)-4-ethylisoxazole-3-carboxamide] |
| 6.70 | COC[C@H](c1ccnc(NC(=O)[C@@H](NC(=O)c2ccnn2C(C)C)C2CC(F)(F)C2)c1)N1C[C@@H](C(F)(F)F)NC1=O [Example 262, N—((S)-1-(3,3-difluorocyclobutyl)-2-((4-((S)-2-methoxy-1-((S)-2-oxo-4-(trifluoromethyl)imidazolidin-1-yl)ethyl)pyridin-2-yl)amino)-2-oxoethyl)-1-isopropyl-1H-pyrazole-5-carboxamide] |
| 6.60 | COCC(NC(=O)CCC(F)(F)F)c1ccnc(NC(=O)[C@@H](NC(=O)c2ccnn2C)C2CCC(F)(F)CC2)c1 (single isomer, unassigned) [Example 136] |
| 6.19 | COCC(NC(=O)CCC(F)(F)F)c1ccnc(NC(=O)[C@@H](NC(=O)c2nccn2C(C)C)C2CCC(F)(F)CC2)c1 (single isomer, unassigned) [Example 141] |
| 7.77 | CCc1nonc1C(=O)N[C@H](C(=O)Nc1cc([C@@H](COC)N2C[C@@H](C(F)(F)F)NC2=O)ccn1)C1CCC(F)(F)CC1 [Example 187, N—((S)-1-(4,4-Difluorocyclohexyl)-2-((4-((S)-2-methoxy-1-((S)-2-oxo-4-(trifluoromethyl)imidazolidin-1-yl)ethyl)pyridin-2-yl)amino)-2-oxoethyl)-4-ethyl-1,2,5-oxadiazole-3-carboxamide] |
| 7.92 | COCC(c1ccnc(NC(=O)[C@@H](NC(=O)c2ccnn2C)[C@H]2CC[C@H](C)CC2)c1)N1C[C@@H](C(F)(F)F)NC1=O (single isomer, unassigned) [Example 85] |
| 7.31 | COCC(c1ccnc(NC(=O)C(NC(=O)C(F)(F)c2cccc(Cl)c2)C2CCC(C)CC2)c1)N1CC(C(F)(F)F)NC1=O (single isomer, unassigned) [Example 249] |
| 4.99 | CC(C)(C)OC(=O)N[C@H](C(=O)Nc1cc(COC(=O)NCC(F)(F)F)ccn1)C1CCC(F)(F)CC1 [Example 45, Tert-butyl (S)-(1-(4,4-difluorocyclohexyl)-2-oxo-2-((4-((((2,2,2-trifluoroethyl)carbamoyl)oxy)methyl)pyridin-2-yl)amino)ethyl)carbamate] |
| 6.08 | COCC(NC(=O)CCC(F)(F)F)c1ccnc(NC(=O)[C@@H](NC(=O)c2ccnn2CC2CC2)C2CCC(F)(F)CC2)c1 (single isomer, unassigned) [Example 147] |
| 7.19 | [2H]C([2H])([2H])C([2H])([2H])n1nccc1C(=O)N[C@H](C(=O)Nc1cc([C@@H](COC)N2C[C@@H](C(F)(F)F)NC2=O)ccn1)C1CCC(F)(F)CC1 [Example 189, N-((S)-1-(4,4-difluorocyclohexyl)-2-((4-((S)-2-methoxy-1-((S)-2-oxo-4-(trifluoromethyl)imidazolidin-1-yl)ethyl)pyridin-2-yl)amino)-2-oxoethyl)-1-(ethyl-d5)-1H-pyrazole-5-carboxamide] |
| 5.34 | COCC(c1ccnc(NC(=O)[C@@H](NC(=O)c2cnc(C)nc2C(F)(F)F)[C@H]2CC[C@H](C)CC2)c1)N1C[C@@H](C(F)(F)F)NC1=O (mixture of isomers) [Example 90, N-((1S)-2-((4-(2-methoxy-1-((RS)-2-oxo-4-(trifluoromethyl)imidazolidin-1-yl)ethyl)pyridin-2-yl)amino)-1-((1r,4S)-4-methylcyclohexyl)-2-oxoethyl)-2-methyl-4-(trifluoromethyl)pyrimidine-5-carboxamide] |
| 6.93 | CCc1cnoc1C(=O)N[C@H](C(=O)Nc1cc(C(CC(F)(F)F)NC(=O)CCC(F)(F)F)ccn1)C1CCC(F)(F)CC1 (stereo partly drawn) [Example 157, N-((1S)-1-(4,4-difluorocyclohexyl)-2-oxo-2-((4-(3,3,3-trifluoro-1-(4,4,4-trifluorobutanamido)propyl)pyridin-2-yl)amino)ethyl)-4-ethylisoxazole-5-carboxamide] |
